Type in all cases: biochemical
The target of experiment [1] is T1, thrombin (Homo sapiens, UniProt P00734). The experiment in a line: Diagnostic plot of fluorogenic substrates measured in bulk fluid, to judge use in thrombin generation measurement. Also noted: from tissue; host or cells: blood plasma of healthy human donors. Particulars: 1 mM substrate, judged from the diagnostic plot. As for the experimental part: The development of fluorescence intensity from aminomethylcoumarine (AMC) is typically measured in a 96-well plate fluorometer (Ascent reader, Thermolabsystems OY, Helsinki Finland) equipped with a 390/460 filter set (excitation/emission) and a dispenser. Immulon 2HB, round-bottom 96-well plates (Dynex) are used. Minimally four readings are done per minute and experiments are carried out in quadruplicate unless otherwise indicated.
To each well, 80 μl of plasma is added. Wells in which TG is measured receive 20 μl of buffer, containing the trigger but no Ca^2+.
Wells in which constant thrombin-like activity is to be measured receive 20 μl of the α2M-thrombin solution at the required concentration as indicated. For PPP, the trigger is 30 pM of recombinant tissue factor (TF) and 24 μM phosphatidyl-serine/phosphatidyl-choline/phosphatidyl-ethanolamine vesicles in Hepes-buffered saline. For PRP the trigger is 20 μl of 3 pM of rTF without added PL.
The plate is placed in the fluorometer and allowed to warm to 37° C. (minimally 15 min). The dispenser of the fluorometer is flushed with warm 100 mM CaCl2 solution, emptied, and then flushed with a prewarmed (37° C.) solution of the substrate in Hepes buffer with 60 g/L bovine serum albumin (FluCa). At the start of the experiment, the instrument dispenses 20 μl of FluCa to all the wells to be measured, registers this as zero time, shakes them for 10 s and starts reading.
A similar approach as that of example 4 can be applied to fluorogenic substrates. The substrates, previously described in ref [35] were, from left to right are BZ-Phe-Val-Arg-AMC, Z-Gly-Pro-Arg-AMC and Z-Pro-Arg-AMC, all tested at a concentration of 1 mM in the setup described under methods.
The scaling factor necessary to convert the arbitrary dF/dt values into nM thrombin is derived from the measurement of the amidolytic activity on a thrombin substrate of the material remaining after thrombin generation is over, as in example 3.

Experiment [2] deals with T1, thrombin. Put plainly: Km of chromogenic thrombin substrates, obtained in buffer. The settings on record: obtained in buffer and not in plasma. An excerpt:
(NB: The Km values have been obtained in buffer and not in plasma but any value of Km between 0.5 and 2 times the present one would have allowed similar conclusions as to the suitability in thrombingenration experiments)

Experiment [3] addresses T1, thrombin. Put plainly: Diagnostic plot (dOD/dt against OD) of chromogenic substrates at fixed thrombin activity, to judge use in thrombin generation measurement. The method, then:
A suitable chromogenic substrate, i.e. a substrate from which a chromogenic group is split when acted upon by the enzyme to be measured (thrombin, plasmin etc), is added to the reaction mixture. Unless otherwise indicated, for thrombin generation, this mixture consists of four parts of defibrinated plasma, one part of trigger solution and one part of start solution. The reactions can be carried out in a spectrophotometer cuvette, a 96 well plate to be read in a photometric well-plate reader or in a laboratory automaton as e.g. the Cobas Bio and Cobas Fara centrifugal analysers (F. Hoffmann-La Roche, Basel, Switzerland). In short in any device capable of measuring the optical density at 405 nm at 30 s intervals during 10 to 30 min.
Typically 80 μL of defibrinated plasma with 20 μL of rTF without Ca2+ are incubated at 37° C., during a time sufficient for temperature equilibration. Thrombin generation is started by adding 20 μL of a pre-warmed start solution containing 100 mM CaCl2 and 3 mM substrate. After the start of the reaction the optical density at 405 nm is recorded at intervals of maximally 30 s for the time required (≧15 min). Depending upon the measuring device a multiple of the volumes can be used.
This amount is determined by the maximal enzyme potential (η) that to be expected in the experiments. […] In the experiment to obtain the diagnostic plot the enzyme concentration (E) is constant and known. So the enzyme potential (η) is known and can be rendered In the diagnostic plot (curved thin lines in FIG. 8).
In this table η indicates the enzyme potential that is to be expected in the thrombingeneration experiment and limit indicates the limit of enzyme potential that can be measured with the indicated substrate at the indicated concentration.
In FIG. 8 it is seen that straight lines fit through the data over the whole range of ODs measured for three of the four substrates tested. For one (S2238) the straight line fits only up to mOD˜650.

Where [4] appears, read: S 50 μM, E 250 nM (MSC), 300 nM (SQ68).
The mark [5] stands for this setting: S 100 μM, E 0.4 nM (S2238), 250 nM (MSC), 300 nM (SQ68).
Setting [6] is: S 150 μM, E 250 nM (MSC), 300 nM (SQ68).

We go through seven molecules from patent publication US8551722B2, “Time-course measurement of enzymatic activity corrected for impacts of disturbances relating to the reaction of the enzyme with a substrate” (Synapse B.V., priority 2008, dated 2013).

Residues, ends and D or L forms follow the SMILES beside them. *: point of attachment. AMC = Cc1cc(=O)oc2cc(N*)ccc12; Cbz = O=C(OCc1ccccc1)*; Bz = O=C(c1ccccc1)* A value given as a limit tells only on which side of the number the result lay.

Consider `Cc1cc(=O)oc2cc(NC(=O)[C@H](CCCN=C(N)N)NC(=O)[C@@H](NC(=O)[C@H](Cc3ccccc3)NC(=O)c3ccccc3)C(C)C)ccc12` [BZ-Phe-Val-Arg-AMC] (Bz-Phe-Val-Arg-{AMC}), for which, in experiment [1], the “suitability for the measurement of thrombin generation (fluorogenic substrates)” value (shortened to “suitability … (fluorogenic substrates)”) was “can be used for the measurement of thrombin generation”.

One may read the Km as the concentration of substrate that gives half-maximal velocity. Regarding `CC(C)C(NC(=O)OCCS(C)(=O)=O)C(=O)NC(CCCN=C(N)N)C(=O)Nc1ccc([N+](=O)[O-])cc1` (stereo not drawn) [MSC, Msc-Val-Arg-pNA], in experiment [2], the Km turned out to be 882 µM. Moreover, the “η (enzyme potential to be expected in the thrombin generation experiment)” value in experiment [3] (S 50 μM) is 1.06 µM·min; in experiment [3] (S 100 μM), 1.11 µM·min; in experiment [3] (S 150 μM) it was 1.17 µM·min. Besides, the “limit (limit of enzyme potential that can be measured with the substrate at the indicated concentration)” value (from here on “limit”) in experiment [3] (setting [4]), in experiment [3] (setting [5]) and in experiment [3] (setting [6]) was over 15 nM·min throughout.

As to `NC(N)=NCCC[C@H](NC(=O)[C@@H]1CCCCN1C(=O)[C@H](N)Cc1ccccc1)C(=O)Nc1ccc([N+](=O)[O-])cc1` [S2238, HD-Phe-Pip-Arg-pNA], the Km in experiment [2] worked out at 10 µM. Further, in experiment [3] (FIG. 8), the “OD up to which the straight line fits the diagnostic plot” value is about 650 mOD. Besides, the “η (enzyme potential to be expected in the thrombin generation experiment)” value in experiment [3] (S 100 μM) is 11 µM·min. Further, the “limit” value in experiment [3] (setting [5]) was 0.014 nM·min. In addition, the “enzyme potential read from the plot at the OD where the straight line stops fitting” value in experiment [3] (at mOD ~650) was about 12.5 nM·min. Besides, in experiment [3] (due to tight binding and inhibition of natural antithrombins), the “ETP to be measured in the presence of this substrate” value came out at 11000 nM·min. The “suitability for the measurement of thrombin generation (chromogenic substrates)” value in experiment [3] (judged from the diagnostic plot) was “unsuitable for the measurement of thrombin generation”.

Take `COC(=O)CC(=O)NC(C)(C)C(=O)NC(CCCNC(=N)N)C(=O)Nc1ccc([N+](=O)[O-])cc1.Cl` (stereo not drawn) [SQ68, Malonyl-α-aminoisobutyryl-arginine para-nitroanilide methyl ester-HCl]: in experiment [2], the Km was 830 µM. Moreover, the “η (enzyme potential to be expected in the thrombin generation experiment)” value in experiment [3] (S 50 μM) came to 1.06 µM·min; in experiment [3] (S 100 μM) it was 1.12 µM·min; in experiment [3] (S 150 μM), 1.18 µM·min. For the same molecule, the “limit” value in experiment [3] (setting [4]), in experiment [3] (setting [5]) and in experiment [3] (setting [6]) was over 30 nM·min each time.

For the molecule `Cc1cc(=O)oc2cc(NC(=O)[C@H](CCCN=C(N)N)NC(=O)[C@@H]3CCCN3C(=O)CNC(=O)OCc3ccccc3)ccc12` [Z-Gly-Pro-Arg-AMC] (Cbz-Gly-Pro-Arg-{AMC}), the “suitability … (fluorogenic substrates)” value in experiment [1] is “turnover number that is so high as to have the substrate consumed before thrombin generation is over”.

`Cc1cc(=O)oc2cc(NC(=O)C(CCCN=C(N)N)NC(=O)C3CCCN3C(=O)OCc3ccccc3)ccc12` (stereo not drawn) [Z-Pro-Arg-AMC] (Cbz-Pro-Arg-{AMC}; configuration not given here): the “suitability … (fluorogenic substrates)” value in experiment [1] is given as “can be used for the measurement of thrombin generation”.

As to DEMZ-Gly-Arg-pNA, in experiment [2], the Michaelis-Menten constant (Km) was 866 µM. In addition, the “η (enzyme potential to be expected in the thrombin generation experiment)” value in experiment [3] (S 500 μM) stood at 1.58 µM·min. In addition, the “limit” value in experiment [3] (S 500 μM, E 50 nM) is over 2 nM·min.
